Where two headings read alike, the source gives them in different places.
What was measured:
[1] = target: BCL2 WT (Homo sapiens (Human), UniProt P10415); experiment: TR-FRET competitive binding assay, BCL2 WT
How it was run: (§1)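 Terbium-labelled N-terminal Halo-fusion BCL2 or BCLXL (E. coli), 0.5 nM, competed against fluorescein-labelled PUMA peptide (2 or 20 nM) for 2 h at 23° C in 50 mM Hepes pH 7.5, 150 mM NaCl, 5% DMSO. TR-FRET 520/495 nm ratio gave IC50 by four-parameter fit; Ki derived from IC50.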

[2] = target: BCL2 G101V (Homo sapiens, UniProt P10415, G101V); experiment: TR-FRET competitive binding assay, BCL2 G101V; settings: BCL2 G101V; Ki determined from IC50; read-out: TR_FRET EKI_Bcl2 G101V
How it was run: as §1

[3] = tested on: BCL2 G101V; experiment: TR-FRET competitive binding assay, BCL2 G101V; parameters: species or system human; settings: for TR_FRET EKI G101V/WT selectivty ratio: ratio Ki BCL2 G101V / Ki BCL2 WT
How it was run: as §1

[4] = target: BCL2 D103Y (Homo sapiens, UniProt P10415, D103Y); experiment: TR-FRET competitive binding assay, BCL2 D103Y; settings: Ki determined from IC50, read-out: TR_FRET EKI_Bcl2 D103Y
How it was run: as §1

[5] = target: BCLXL WT (Homo sapiens (Human), UniProt Q07817); experiment: TR-FRET competitive binding assay, BCLXL WT; settings: for Ki: BCLXL WT, Ki determined from IC50, read-out: TR_FRET EKI BclxL; for TR_FRET EKI BCLxL/WT selectivty ratio: ratio Ki BCLxL / Ki BCL2 WT
How it was run: as §1

[6] = tested on: KMS-12-PE Bcl-2 WT; experiment: In vitro cytotoxicity CellTiter-Glo 48 h, KMS-12-PE Bcl-2 WT; type: cell-based; settings: Homo sapiens, KMS-12-PE, C50 = concentration needed to reach 50% of the cellular viability
Protocol: KMS-12-PE (ACC 606) were purchased from the Leibniz-Institute DSMZ (Braunschweig, Germany) and were grown at 37° C. in a humidified atmosphere with […] in media recommended by the suppliers. Lentiviral particles containing Bcl-2 wild type (also named “Bcl2 WT”) and Bcl-2 mutated on G101V (also named “Bcl2 G101V”) were cloned into pcLV-CMV-DEST-IRES-TagRFP. Lentiviral particles (1×106) were mixed with Polybrene at 8 µg/ml and transduced by spinoculation for 1 h at 32° C. and incubated overnight. After 8 days, TagRFP positive-cells were sorted by FACS. BCL2 expression was monitored by immunoblotting using anti-Flag and anti-BCL2 antibodies.
Cellular viability was monitored with the cell viability assay (CellTiter-Glo®) on KMS-12-PE WT and G101V cell lines. The CellTiter-Glo® (CTG) Luminescent Cell Viability Assay (from Promega) is a homogeneous method to determine the number of viable cells in culture based on quantitation of the ATP present, which signals the presence of metabolically active cells.
Dose response of compounds are performed with 10 mM stock solutions (DMSO), 11-points curve, in a 384-well compound plate. The assay plate is prepared by stamping 40 nL from compound dilution plate of all different concentrations (e.g. 10 mM to have final […] assay test) into a cell culture microplate, using Echo acoustic liquid handling (Labcyte, Beckman). 40 μl of cell solution is added and cells are incubated with compounds for 48 h at 37° C., 5% CO2. CTG was added to the cells (according to the manufacturer instructions) and luminescence intensity was recorded using the Pherastar plate reader (BMG).
This assay provides in vitro cellular potency of the tested Bcl-2 inhibitors, measuring the C50, defined as the concentration needed to reach 50% of the cellular viability.

[7] = Ki determined from IC50, read-out: TR_FRET EKI_Bcl2 WT

Chain of BCLXL WT (Q07817 other isoform, or with tags, fused parts or gaps): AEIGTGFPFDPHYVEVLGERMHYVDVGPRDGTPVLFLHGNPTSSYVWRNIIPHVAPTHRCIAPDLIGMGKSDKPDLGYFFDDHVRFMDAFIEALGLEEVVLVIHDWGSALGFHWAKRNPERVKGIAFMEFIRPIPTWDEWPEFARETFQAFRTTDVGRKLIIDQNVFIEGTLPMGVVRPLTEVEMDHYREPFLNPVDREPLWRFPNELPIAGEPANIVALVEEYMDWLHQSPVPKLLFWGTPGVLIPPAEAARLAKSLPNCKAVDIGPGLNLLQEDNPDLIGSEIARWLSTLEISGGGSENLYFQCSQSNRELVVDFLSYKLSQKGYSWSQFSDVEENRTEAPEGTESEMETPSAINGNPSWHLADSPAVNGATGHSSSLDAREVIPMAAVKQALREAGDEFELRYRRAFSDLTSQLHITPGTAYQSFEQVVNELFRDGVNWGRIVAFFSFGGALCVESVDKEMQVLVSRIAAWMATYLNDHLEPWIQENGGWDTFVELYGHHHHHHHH

SMILES	Ki [1, 7] [nM]	Ki [2] [nM]	TR_FRET EKI G101V/WT selectivty ratio [3]	Ki [4] [nM]	Ki [5] [nM]	TR_FRET EKI BCLxL/WT selectivty ratio [5]	Ki ([1]; Ki determined from IC50, read-out: TR_FRET EKI_Bcl2) [nM]	TR_FRET EKI G101V/WT selectivty ([3]; ratio of Ki BCL2 G101V to BCL2 WT)	TR_FRET EKI BCLxL/WT selectivty ([5]; ratio of Ki BCLxL to BCL2 WT)	IC50 [6] [µM]
Cc1nn(C)cc1N(C(=O)c1cc(-c2cc3c(cc2C(=O)N2Cc4ccccc4C[C@H]2C)CN(C(=O)Cc2ccc(OCCN(C)C)cc2F)CC3)n(C)c1C)c1ccccc1 [Example 222, 5-[2-[2-[4-[2-(dimethylamino)ethoxy]-2-fluoro-phenyl]acetyl]-7-[(3R)-3-methyl-3,4-dihydro-1H-isoquinoline-2-carbonyl]-3,4-dihydro-1H-isoquinolin-6-yl]-N-(1,3-dimethylpyrazol-4-yl)-1,2-dimethyl-N-phenyl-pyrrole-3-carboxamide]	0.09	6.3	69.6	0.19	12.5	138.9	–	–	–	0.055
Cc1c(C(=O)N(c2ccc(O)cc2)c2cc(C#N)n(C(F)F)c2C)cc(-c2cc3c(cc2C(=O)N2Cc4ccccc4C[C@H]2CN2CC4(CCC4)C2)CN(C(=O)Cc2ccc(OCCC4CCOCC4)cc2)CC3)n1C [Example 180, 5-[7-[(3S)-3-(2-azaspiro[3.3]heptan-2-ylmethyl)-3,4-dihydro-1H-isoquinoline-2-carbonyl]-2-[2-[4-(2-tetrahydropyran-4-ylethoxy)phenyl]acetyl]-3,4-dihydro-1H-isoquinolin-6-yl]-N-[5-cyano-1-(difluoromethyl)-2-methyl-pyrrol-3-yl]-N-(4-hydroxyphenyl)-1,2-dimethyl-pyrrole-3-carboxamide]	0.07	0.3	4.5	0.15	17.2	252.5	–	–	–	0.0078
Cc1c(C(=O)N(c2ccccc2)c2cnn(C(F)F)c2)cc(-c2cc3c(cc2C(=O)N2Cc4ccccc4C[C@H]2CN2CCCCC2)CN(C(=O)Cc2ccc(OCCC4CCOCC4)cc2)CC3)n1C [Example 241]	–	39.2	–	0.64	52.7	–	0.244	160.7	216	0.0586
Cc1c(C(=O)N(c2ccccc2)c2cnn(C)c2)cc(-c2cc3c(cc2C(=O)N2Cc4ccccc4C[C@H]2C)CN(C(=O)Cc2cccc(N4CC5(CN(C)C5)C4)c2)CC3)n1C [Example 217, 1,2-dimethyl-5-[2-[2-[3-(6-methyl-2,6-diazaspiro[3.3]heptan-2-yl)phenyl]acetyl]-7-[(3R)-3-methyl-3,4-dihydro-1H-isoquinoline-2-carbonyl]-3,4-dihydro-1H-isoquinolin-6-yl]-N-(1-methylpyrazol-4-yl)-N-phenyl-pyrrole-3-carboxamide]	0.02	2	88.7	0.09	0.6	24.9	–	–	–	0.0453
CCn1cc(N(C(=O)c2cc(-c3cc4c(cc3C(=O)N3Cc5ccccc5C[C@H]3C)CN(C(=O)Cc3ccc(OCCN5CCOCC5)cc3)CC4)n(C)c2C)c2ccccc2)c(C)n1 [Example 210, N-(1-ethyl-3-methyl-pyrazol-4-yl)-1,2-dimethyl-5-[7-[(3R)-3-methyl-3,4-dihydro-1H-isoquinoline-2-carbonyl]-2-[2-[4-(2-morpholinoethoxy)phenyl]acetyl]-3,4-dihydro-1H-isoquinolin-6-yl]-N-phenyl-pyrrole-3-carboxamide]	0.04	4.1	118.3	0.11	29	828.6	–	–	–	0.0395
Cc1nn(C)cc1N(C(=O)c1cc(-c2cc3c(cc2C(=O)N2Cc4ccccc4C[C@H]2C)CN(C(=O)Cc2ccc(OCCN4CCOCC4)cc2F)CC3)n(C)c1C)c1ccccc1 [Example 187, N-(1,3-dimethylpyrazol-4-yl)-5-[2-[2-[2-fluoro-4-(2-morpholinoethoxy)phenyl]acetyl]-7-[(3R)-3-methyl-3,4-dihydro-1H-isoquinoline-2-carbonyl]-3,4-dihydro-1H-isoquinolin-6-yl]-1,2-dimethyl-N-phenyl-pyrrole-3-carboxamide]	0.03	2.7	78.9	0.08	17.3	507.9	–	–	–	0.0069
Cc1c(C(=O)N(c2ccccc2)c2ccnn2C)cc(-c2cc3c(cc2C(=O)N2Cc4ccccc4C[C@H]2C)CN(C(=O)Cc2ccc(OCCN4CCOCC4)cc2)CC3)n1C [Example 220, 1,2-dimethyl-5-[7-[(3R)-3-methyl-3,4-dihydro-1H-isoquinoline-2-carbonyl]-2-[2-[4-(2-morpholinoethoxy)phenyl]acetyl]-3,4-dihydro-1H-isoquinolin-6-yl]-N-(2-methylpyrazol-3-yl)-N-phenyl-pyrrole-3-carboxamide]	0.13	14.3	109.9	0.37	42.3	325.6	–	–	–	0.0907

The remaining molecules from weak to strong by Ki [2], led by results:

Ki [1, 7] [nM]	Ki [2] [nM]	TR_FRET EKI G101V/WT selectivty ratio [3]	Ki [4] [nM]	Ki [5] [nM]	TR_FRET EKI BCLxL/WT selectivty ratio [5]	Ki ([1]; Ki determined from IC50, read-out: TR_FRET EKI_Bcl2) [nM]	TR_FRET EKI G101V/WT selectivty ([3]; ratio of Ki BCL2 G101V to BCL2 WT)	TR_FRET EKI BCLxL/WT selectivty ([5]; ratio of Ki BCLxL to BCL2 WT)	SMILES	IC50 [6] [µM]
0.07	5.3	72.1	0.18	26	351.4	–	–	–	Cc1c(C(=O)N(c2ccccc2)c2cnn(C(F)F)c2)cc(-c2cc3c(cc2C(=O)N2Cc4ccccc4C[C@H]2CF)CN(C(=O)Cc2ccc(OCCN4CCOCC4)cc2)CC3)n1C [Example 211, N-[1-(difluoromethyl)pyrazol-4-yl]-5-[7-[(3S)-3-(fluoromethyl)-3,4-dihydro-1H-isoquinoline-2-carbonyl]-2-[2-[4-(2-morpholinoethoxy)phenyl]acetyl]-3,4-dihydro-1H-isoquinolin-6-yl]-1,2-dimethyl-N-phenyl-pyrrole-3-carboxamide]	0.0157
0.014	4.5	321.5	0.09	107	7642.9	–	–	–	Cc1c(C(=O)N(c2ccccc2)c2cnn(C(F)F)c2)cc(-c2cc3c(cc2C(=O)N2Cc4ccccc4C[C@H]2CN2CC4(CCC4)C2)CN(C(=O)Cc2ccc(OCCN4CCOCC4)cc2)CC3)n1C [Example 206, 5-[7-[(3S)-3-(2-azaspiro[3.3]heptan-2-ylmethyl)-3,4-dihydro-1H-isoquinoline-2-carbonyl]-2-[2-[4-(2-morpholinoethoxy)phenyl]acetyl]-3,4-dihydro-1H-isoquinolin-6-yl]-N-[1-(difluoromethyl)pyrazol-4-yl]-1,2-dimethyl-N-phenyl-pyrrole-3-carboxamide]	0.047
0.04	3.7	83.8	0.12	8.8	200.0	–	–	–	Cc1c(C(=O)N(c2ccccc2)c2cnn(C)c2)cc(-c2cc3c(cc2C(=O)N2Cc4ccccc4C[C@H]2C)CN(C(=O)Cc2ccc(OCCN(C)C)cc2)CC3)n1C [Example 208, 5-[2-[2-[4-[2-(dimethylamino)ethoxy]phenyl]acetyl]-7-[(3R)-3-methyl-3,4-dihydro-1H-isoquinoline-2-carbonyl]-3,4-dihydro-1H-isoquinolin-6-yl]-1,2-dimethyl-N-(1-methylpyrazol-4-yl)-N-phenyl-pyrrole-3-carboxamide]	0.0301

— US20250179047A1, “5-[7-(3,4-DIHYDRO-1H-ISOQUINOLINE-2-CARBONYL)-1,2,3,4 TETRAHYDROISOQUINOLIN-6-YL]-1H-PYRROLE-3-CARBOXAMIDE DERIVATIVES, PHARMACEUTICAL COMPOSITIONS CONTAINING THEM AND THEIR USES AS PRO-APOPTOTIC AGENTS” (LES LABORATOIRES SERVIER, priority 2022, published 2025)
